Assay results published in US6867186B2, “Cell-permeable protein inhibitors of calpain” (New England Medical Center Hospital, priority 1997, dated 2005).
Where two headings read alike, the source gives them in different places.

Columns and labels:
HIV-1 = test system: HIV-1
Method: U1 is a human promonocytic cell line that is chronically infected with HIV-1 and that constitutively expresses low levels of HIV-1. […] In the present experiment, 1×10^6 cells/ml were treated with various dosages of calpastat and incubated for one hour at 37° C. After incubation, various concentrations of Tpg were added to the calpastat-treated cells and aliquoted into a 24-well plate. To observe the stimulation of HIV-1 activity by Tpg, equivalent numbers of cells were treated with Tpg alone. The cells were then incubated at 37° C. for up to four days, and supernatants from the cell culture were collected each day to measure HIV-1 activity. The viability of cells treated with both Tpg and calpastat were determined each day by Trypan-blue exclusion test. The HIV-1 activity in the collected supernatants was determined by measuring the HIV-1 p24 core antigen protein by ELISA (Dupont Medical Products, Boston, Mass.) according to the manufacturer's instructions.
In another series of experiments, U1 cells, which are latently infected with HIV-1 provirus, were plated at 10^6 cells/well in 1 ml of medium and treated with varying concentrations of either calpastat (FIG. 7E) or calpeptin (benzyloxycarbonyl-leucyl-norleucinal) (FIG. 7F) for 45 minutes before addition of thapsigargin (4 nM final concentration). […] After 48 hours of stimulation, HIV-1 p24 antigen levels were determined in 200 μl of tissue culture supernatant, using a p24 ELISA (DuPont). All assays were performed on triplicate cultures.

U937 cells = test: Chemokine production of thapsigargin-stimulated U937 cells; assay type: cell-based; details: 5 nM calpastat
Method: peptides can inhibit chemokine production in vitro. The effect of […] on chemokine production was tested as follows. […] The chemokines (MIP-1α, MIP-1P and RANTES) in the supernatants of U937 cells were assayed using QuantikineTM kits and as described by R&D Systems (Minneapolis, Minn.). […] Thus, […] be used to reduce production of inflammatory cytokines and treat inflammatory disorders.

[1] = test system: platelet rich plasma (PRP); test: Platelet disk-to-sphere shape change after cold storage (ESC assay); assay type: cell-based; design: cold storage of PRP, extent of shape change (ESC): dose or concentration left out as unconfirmed
Method: Disk-to-sphere shape change was then assayed using the extent of shape change (ESC) assay (Holme et al., Transfusion 38:31-40, 1998). Briefly, samples of stored PRP were treated to induce disk-to-sphere shape change by cold storage and the addition of EDTA (to prevent aggregation). ADP was then added as a stimulus to measure ESC, and shape change was measured by determining light transmission through the sample. If the initial storage conditions caused considerable disk-to-sphere shape change, there would be little additional shape change upon addition of EDTA and ADP. Conversely, if the initial storage conditions caused little disk-to-sphere shape change, there would be considerable additional shape change upon addition of EDTA and ADP. The results of three experiments in which 24 hour storage of platelets at 4° C. was tested, in the presence and absence of calpastat, are shown in FIG. 12. The bracket labelled “fresh CDP” indicates the ESC that can be expected for fresh PRP in CPD, and the bracket marked “cold EDTA-treated PRP” indicates the ESC that can be expected for PRP subjected to cold storage in EDTA.
The day O control is an assay performed on fresh PRP with no cold storage in standard buffer.

calpain = test: Ionophore-dependent calpain degradation of ABP and talin in platelets; assay type: cell-based; details: 5, 8, or 10 minutes A23187
Method: To investigate whether calpastat inhibits calpain activity in platelets, the ionophore-dependent proteolysis of actin binding protein (ABP; about 280 kDa) and talin (about 240 kDa), both of which are substrates of both μ- and m-calpains, was examined as follows.
Platelets were pre-incubated with ZLLYCHN2, DMSO (solvent for ZLLY-CHN2), calpastat, or HEPES buffer (buffer for calpastat), and then treated with or without ionophore A23187 for 5, 8, or 10 minutes. The platelets were then gel-purified as described above. Whole cell lysates were prepared and fractionated by SDS polyacrylamide gel electrophoresis.

Substance: H-AAVALLPAVLLALLAPEKLGERDDTIPPEYRELLEKKTGV-OH [Calpastat]
- decrease of mean fold viral production (HIV-1; 5 μM, 24 hours of Tpg stimulation): 47%
- decrease of mean fold viral production (HIV-1; 5 μM, 46 hours of Tpg stimulation): 44%
- decrease of mean fold viral production (HIV-1; 5 μM, 72 hours of Tpg stimulation): 55%
- decrease of mean fold viral production (HIV-1; 5 μM, 96 hours of Tpg stimulation): 61%
- inhibition of HIV-1 release from infected cells (HIV-1; 5 μM, overall): about 50%
- IC50 (HIV-1; read-out: IC50, inhibition of HIV-1 replication, FIG. 7E, U1 cells, thapsigargin 4 nM, 48 hours): 50 nM
- reduction of production of chemokines (MIP-1α, MIP-1P and RANTES) (U937 cells): about one third
- cold storage of PRP, extent of shape change (ESC) ([1]; about 24 hours at 4° C., compared to EDTA): significantly improved cold storage
- protection against disk-to-sphere shape change ([1]; five days at 4° C.): considerable protection
- A23187-dependent calpain degradation of ABP and talin in platelets (calpain): inhibited
